Test results as given in US6596702B2, “Compositions for use in rehydration and nutrition during athletic exercise and methods of making same” (Elan Drug Delivery Limited, priority 1994, dated 2003).

Legend:
[1] = Osmolarity of aqueous trehalose solution (Roebling Micro-Osmometer); type: physicochemical
Protocol: 5.0 to 11.34 g of trehalose dihydrate is dry blended at an rpm greater than 18,000 until the consistency of is a uniform powder. Thereafter, the trehalose dihydrate is dissolved in distilled deionized water to a final volume of 100 mL and an osmolarity of 300 mOsm or less. For 11.34 g of trehalose the measured value was 287 mOsm. Measurement of the osmolarity of the final mixture is made on a Roebling Micro-Osmometer.

[2] = Tolerability of trehalose; type: in vivo; settings: humans
[3] = Blood glucose levels with trehalose as carbohydrate source in a sports beverage; type: in vivo; settings: trehalose as primary carbohydrate source in sports beverages

osmolarity ([1]; 1 molar solution of trehalose): 1665 mOsm | osmolarity, measured value ([1]; 11.34 g trehalose dihydrate dissolved in distilled deionized water to a final volume of 100 mL): 287 mOsm | osmolarity ([1]; 11.34 g trehalose dihydrate in distilled deionized water, final volume 100 mL, stated isotonic value): 300 mOsm
Structure (SMILES): OC[C@H]1O[C@H](O[C@H]2O[C@H](CO)[C@@H](O)[C@H](O)[C@H]2O)[C@H](O)[C@@H](O)[C@@H]1O [trehalose, α-D-glucopyranosyl-α-D-glucopyranoside]
tolerability [2]: well tolerated | blood glucose levels over that of glucose alone [3]: two-fold
